One compound from patent publication US20200405671A1, “METHODS AND MATERIALS FOR TREATING POLYCYSTIC KIDNEY DISEASE” (Mayo Foundation for Medical Education and Research, priority 2019, published 2020) can be followed below.

A short description of data set [1]: 1H-NMR-based analysis of plasma and tissue betaine concentration after betaine supplementation. In kind it is in vivo. The settings on record: Pkd1^RC/RC mice, vs no betaine, p<0.001; for tissue betaine concentration: kidney tissue. Here is the method:
(§1) One month old Pkd1^RC/RC mice were divided into three groups and started treatment with regular water or regular water supplemented with 1% or 2% betaine (FIG. 2) for 5 months (n=16 per group). All mice were euthanized at 6 months of age, and kidneys harvested. Cystic index was determined from histological sections. 1H-NMR-based metabolomics analysis was performed from tissue urine and plasma samples.

Data set [2] in a line: 1HNMR spectroscopy of stability of betaine in water. In kind it is physicochemical. As to conditions: 1% and 2% betaine in water, day 0, day 2 and day 8 (course of one week). The text has this: FIG. 2: ^1HNMR spectroscopy depicting stability of betaine in water during the course of 1 week. Three spectral lines on top indicating 2% betaine represent betaine concentration as determined by ^1HNMR spectroscopy at day 0, day, 2 and day 8. Below, three spectral lines indicating 1% betaine represent betaine concentration as determined by ^1HNMR spectroscopy at day 0, day, 2 and day 8. At the bottom, flat spectra can be seen for the animals receiving control water without betaine, indicated as control day 2 and 8. Overall, betaine was stable and non-significant changes in betaine concentration were observed during the course of one week.

Data set [3] relates to Pkd1^RC/RC mice. The data set can be described thus: Betaine supplementation in drinking water in Pkd1^RC/RC mice: kidney/body weight and cystic index from histological sections. In kind it is in vivo. The settings on record: p<0.01; for kidney/body weight: euthanized at 6 months of age, no betaine 2.25; for cystic index (percentage of cyst area within the total kidney section): no betaine 21.1%. Here is the method: as §1

Data set [4] concerns Pkd1^RC/RC mice. The data set can be described thus: Intrarenal microvasculature quantified using a capillary index. In kind it is in vivo. The settings on record: 6 months of age. Here is the method: as §1
Intrarenal microvasculature was quantified using a capillary index. Capillaries in the cortex were identified by the presence of lumen, red blood cells, and/or an endothelial cell lining. For the PKD animals, the number of capillaries is calculated adjusting for the cystic area.

For data set [5], the system named is Pkd1^RC/RC mice. In words: Blood pressure (MAP) by tail cuff, CODA non-invasive blood pressure system. It counts as in vivo. The settings on record: compared with wild type (WT) animals. Here is the method:
as §1
Blood pressure was determined during the same time frame (9-11 am) in all animals in all groups, using the CODA non-invasive blood pressure system (Kent Scientific). Briefly, mice were guided into a plastic mouse holder and were left to acclimate to the holder for 5 minutes. Ten blood pressure (BP) measurements within 10 minutes were obtained by tail cuff.

[6] abbreviates: 1% betaine in drinking water for 5 months.
The mark [7] stands for this setting: 2% betaine in drinking water for 5 months.

Entries after “also recorded” stand apart in the source; their conditions may differ.

With `C[N+](C)(C)CC(=O)[O-]` [betaine, trimethylglycine], the tissue betaine concentration result in data set [1] (1% betaine in drinking water) and in data set [1] (2% betaine in drinking water) was “significant increases; also recorded: increased” in each case. Moreover, the plasma betaine concentration result in data set [1] (1% betaine in drinking water) and in data set [1] (2% betaine in drinking water) was “increased” throughout. For the same compound, the “stability of betaine in water (betaine concentration)” value in data set [2] is “stable”. The kidney/body weight in the data set with Pkd1^RC/RC mice [3] (setting [6]) is given as 1.82; in the data set on Pkd1^RC/RC mice [3] (setting [7]) it was 1.85. For the same compound, the “cystic index (percentage of cyst area within the total kidney section)” value in the data set on Pkd1^RC/RC mice [3] (setting [6]) came to 11.1%; in the data set on Pkd1^RC/RC mice [3] (setting [7]), 9.4%. Moreover, the “capillary count (intrarenal microvasculature)” value in the data set on Pkd1^RC/RC mice [4] (1% betaine, female animals) is given as “not effective”; in the data set with Pkd1^RC/RC mice [4] (1% betaine, male animals), “preserved the capillary count”; with Pkd1^RC/RC mice [4] (2% betaine, female animals), “preserved capillary count”; with Pkd1^RC/RC mice [4] (2% betaine, male animals) it was “preserved the capillary count”. The “Mean Arterial Pressure (MAP)” value in the data set with Pkd1^RC/RC mice [5] (1% betaine) and with Pkd1^RC/RC mice [5] (2% betaine) was “preserved MAP within WT levels” each time.
